Data: publication PMC4330696, “Characterization of the serine acetyltransferase gene family of Vitis vinifera uncovers differences in regulation of OAS synthesis in woody plants” (Frontiers in Plant Science, 2015)

Key:
VvSERAT2;1 = target: T1, VvSERAT2;1 (Vitis vinifera, UniProt F6HCV5); experiment: SERAT activity assay, titration with cysteine up to […]; type: biochemical; details: read-out: Cys Inhibition (IC50 mM)
T1 construct: gene VIT_00s0194g00120; N-terminal His tag (pET28a), E. coli; lacks predicted transit peptide (57 residues predicted); naturally lacks canonical C-terminal tail; free SERAT without OASTL
T1 sequence (F6HCV5 58-306): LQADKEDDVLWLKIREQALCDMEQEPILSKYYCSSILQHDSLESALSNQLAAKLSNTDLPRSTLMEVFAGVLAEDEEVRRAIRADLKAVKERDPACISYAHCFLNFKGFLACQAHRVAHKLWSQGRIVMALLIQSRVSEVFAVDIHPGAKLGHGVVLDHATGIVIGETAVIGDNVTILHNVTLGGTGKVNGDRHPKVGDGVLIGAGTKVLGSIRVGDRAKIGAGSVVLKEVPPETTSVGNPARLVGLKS

AtOASTL-B = target: T2, AtOASTL-B (Arabidopsis thaliana, UniProt P47999); experiment: OASTL activity assay (Gaitonde); […]-1 pmol enzyme, turnover only; type: biochemical; details: co-substrate sulfide; control without SERAT
T2 construct: gene OASB; recombinant, expressed in E. coli (Wirtz et al. 2004)
T2 sequence (P47999 61-392): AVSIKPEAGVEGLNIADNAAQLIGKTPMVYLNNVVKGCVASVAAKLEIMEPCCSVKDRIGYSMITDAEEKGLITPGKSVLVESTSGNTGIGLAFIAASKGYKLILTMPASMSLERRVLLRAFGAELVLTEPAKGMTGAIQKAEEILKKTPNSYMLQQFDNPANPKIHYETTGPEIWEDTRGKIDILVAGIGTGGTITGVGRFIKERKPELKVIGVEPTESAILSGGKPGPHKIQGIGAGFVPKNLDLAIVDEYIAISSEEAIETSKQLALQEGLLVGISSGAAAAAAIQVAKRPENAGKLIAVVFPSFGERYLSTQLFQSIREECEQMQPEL

Compound | IC50 (VvSERAT2;1) | OASTL activity (AtOASTL-B)
N[C@@H](CS)C(=O)O [L-Cys] | 1.9 ± 0.56 mM | 
CC(=O)OC[C@H](N)C(=O)O [O-acetylserine] |  | Enzymatic activity of OASTL was determined according to Gaitonde
